Source: patent US20090186915A1, “Compositions and methods for treatment of glioblastoma, gliosarcoma, NSCLC, and head and neck cancer” (Unibioscreen S. A., priority 2006, published 2009)
Like-named read-outs stand apart in the source and are kept apart here.

Legend:
CCL2, CXCL-I and CXCL-8 = assay: ELISA of CCL2, CXCL1 and CXCL8, Hs683 cells; assay type: cell-based, human; details: 1 μM single or 5×1
U-373MG = assay: MTT overall cell growth, U-373MG cells; assay type: cell-based; details: Homo sapiens
Method: (§1) Tests were performed in order to rapidly, i.e. within 5 days, measure the effect of the compound of example 2 on the overall cell growth. The test measures the number of metabolically active living cells that are able to transform the yellow product 3-(4,5-dimethylthiazol-2-yl)-2,5-diphenyl tetrazolium bromide (herein referred as MTT) into the blue product formazan dye by mitochondrial reduction. The amount of formazan obtained at the end of the experiment, measured by means of a spectrophotometer, is directly proportional to the number of living cells. Optical density determination thus enables a quantitative measurement of the effect of the investigated compounds as compared to the control condition (untreated cells) and/or to other reference compounds.
Six human cancer cell lines described in table 1 were used in the following MTT tests. These cell lines cover six histological cancer types, being prostate, glioma, pancreas, colon, lung and breast cancers. Cells were allowed to grow in 96 well micro-wells with a flat bottom with an amount of 100 μl of cell suspension per well with 1,000 to 4,000 cells/well depending on the cell type used. Each cell line was seeded in a well known MEM 10% serum culture medium. […]
(§2) After 72 hours of incubation at 37° C. with (experimental conditions) or without (control condition) the compound to be tested, the medium was replaced by 100 μl MTT dissolved in RPMI (1640 without phenol red) at a concentration of 1 mg/ml. […] The micro-wells were shaken for 5 minutes and read on a spectrophotometer at wavelengths of 570 nm (maximum formazan absorbance) and 630 nm (back-ground noise).
For each experimental condition, the mean optical density was calculated, as well as the percentage of remaining living cells in comparison with the control.
The overall growth of human cancer cell lines was determined by means of the calorimetric MTT (3-[4,5-dimethylthiazol-2-yl]-diphenyl tetrazolium bromide; Sigma) assay, as detailed previously.

LC3-II = LC3-II immunoblot, DU-145; assay type: cell-based, human; details: 10 μM
DU-145 [1] = assay: Autophagy: acidic vesicular organelles, acridine orange flow cytometry, DU-145; assay type: cell-based, human; details: red fluorescence, up to 10 μM
Method: The cytoplasm and nucleus fluoresce green in acridine orange-stained cells, and the acidic compartments fluoresce red. The intensity of the red fluorescence is proportional to the degree of acidity and the volume of acidic vesicular organelles, including autophagic vacuoles. To quantify the development of acidic vesicular organelles, the cells were stained with acridine orange for 15 minutes and removed from the plate with trypsinization. Cells were then analyzed by flow cytometry. Each sample was evaluated in triplicate.

DU-145 [2] = assay: Apoptosis by Annexin V flow cytometry, DU-145; assay type: cell-based, human
Method: We used flow cytometry (according to the protocol found in Mijatovic et al. Neoplasia 2006) to determine the percentages of PC-3 and DU-145 positive cells for both Annexin V and propidium iodide and we observed that a maximum of 10% only of PC-3 or DU-145 cells underwent apoptotic processes following a treatment with 10 μM of the compound produced according to example 2 or example 7.
The determination of the percentage of cells undergoing apoptosis was performed using an Annexin V-FITC Apoptosis Detection Kit (Sigma) following the manufacturer's instructions. Each sample was evaluated in triplicate.

Rb, pRb = assay: Western blot of Rb and p-Rb, PC-3; assay type: cell-based, human; details: 10 μM, 48 and 72 hours
Method: Cell extracts were prepared by the lysis of subconfluent PC-3 cells directly in boiling lysis buffer (10 mM Tris, pH 7.4, 1 mM Na3O4V, 1% SDS, pH 7.4). Approximately 40 μg of extracted proteins (evaluated by the bicinchoninic acid protein assay; Pierce, Perbio Science, Erembodegem, Belgium) was then loaded onto a denaturing polyacrylamide gel. The proteins submitted to Western blot analyses were detected using primary antibodies provided by: 1) CST Technologies, Bioké, Leiden, The Netherlands: Rb (1:2000) and p-Rb (1:1000); 2) BD Transduction Laboratories, Erembodegem, Belgium: E2F1 (1:400); and 3) AbCam, Cambridge, UK: tubulin (1:3000, used as a loading control). The antibody for LC-3 protein (1:500) was kindly provided by Dr. Yasuko Kondo. Western blot analyses were performed as detailed previously.

[3] = system: human A549 NSCLC orthotopic
Method: The purpose of the present study was to evaluate the in vivo efficacy of UNBS5162 on human A549 NSCLC orthotopic nude mice model. The endpoint in this experiment was the survival period of the tumor-bearing mice following treatment, as indicated.
The experiment comprised 6 groups of II mice, one group with mice receiving the vehicle only (Ct group) and 5 groups receiving the treatments as indicated in the Table 13. UNBS5162 was dosed i.v. at 10 mg/kg (in lactic acid vehicle). Taxol (Paclitaxel 6 mg/mL, Bristol-Myers Squibb) was dosed i.v. at 20 mg/kg.

PC3 = assay: MTT overall cell growth, PC3 cells; assay type: cell-based; details: Homo sapiens, 72 h; PC-3; 3 days of culturing; mean of six determinations; read-out: IC50 (μM) In Vitro Growth Inhibition
Method: as §1, with “compounds. […]” for “compounds.”
as §2
For each experimental condition, the mean optical density was calculated, as well as the percentage of remaining living cells in comparison with the control. […]

MXT-HI mammary tumor = assay: Syngeneic MXT-HI mammary tumor s.c., with or without irradiation; details: for Mean tumor size: UNBS5162 i.v. (5i × 3w) 10 mg/kg, alone or with 10 gray; for Number of mice dead or sacrificed: 11 mice per group
Method: The MXT-HI models used in our laboratory involve subcutaneously injecting MXT-HI tumor fragments into the flanks of B6D2F1 mice.
After the adaptation period, animals were inoculated subcutaneously with MXT-HI tumor. Briefly, “bank animals” were sacrificed and MXT-HI tumors were isolated from the animals, kept in saline solution and minced into 1 mm^3 pieces. These pieces (one/animal) were randomly s.c. inoculated into the right flanks of mice by means of a trocar.
UNBS5162 was dosed intravenously in accordance with UNBS procedure #002. The dosing volume was fixed at 200 μL/mouse. Group 1: Control (lactic acid vehicle) (5i/week×3 weeks) Group 2: UNBS5162 (10 mg/kg, 5i/week×3 weeks) Group 3: Irradiated (10 gray, 1 irradiation) Group 4: Irradiated (10 gray, 1 irradiation)+UNBS5162 (10 mg/kg, 5i/week×3 weeks) For group 4, the first administration of UNBS5162 was performed at the morning of the day of irradiation (5 Dec. 2007).
Briefly, animals were anaesthetized, using a syringe, with 150 μl of Rompun/Ketalar mixture (1 part Rompun/1 part Ketalar/4.5 parts saline) injected intraperitoneally. After approximately 5 minutes and after verification that animals were completely asleep, an irradiation simulation was performed first to focalise irradiation in the tumor centre and to avoid to irradiate healthy tissue. Simulation was performed individually on each animal to adapt irradiation to tumor size. In a second time, the tumor was irradiated with a dose of 10 gray (5 MV photons from a linear accelerator at a source skin distance of 1 m).
For technical reasons, irradiation was not performed the same day for all animals. Tumor irradiation was performed on day 14 post-graft for group 4 (irradiated+UNBS5162) and on day 16 post-graft for group 3 (irradiated alone).
Tumor growths were recorded 3 times weekly on Monday, Wednesday and Friday.
Statistical comparisons between the control group and the treated groups were performed with the non-parametric Mann-Whitney U-test. Survival analysis was done either by calculating the % T/C-value or with Kaplan-Meier analysis and Log-rank statistics. All statistical analyses were carried out using Statistica software (Statsoft, Tulsa, Okla.). The cut-off level for statistical significance was set at a p-value of p<0.05.
The T/C-values were calculated by dividing the day of death or sacrifice of the median mouse in a treated group T by the day of death or sacrifice of the median mouse in the control group C, the latter said to be 100%.

[4] = UNBS5162 10 mg/kg i.v. 5i×3w, alone or with 1×10 gray

CN(C)CCN1C(=O)c2cccc3cc(NC(N)=O)cc(c23)C1=O [UNBS5162, N-{2-[2-(dimethylamino)ethyl]-1,3-dioxo-2,3-dihydro-1H-benzo[de]isoquinolin-5-yl}urea]
CCL2, CXCL-I and CXCL-8 production (ELISA) (CCL2, CXCL-I and CXCL-8): a marked UNBS5162-mediated decrease in CCL2, CXCL-I and CXCL-8 production | IC50 (U-373MG; 72 h, U373-MG, 3 days of culturing, mean of six determinations, read-out: IC50 (μM) In Vitro Growth Inhibition): 4.7 µM | IC50 (U-373MG; U373 MG, U-373MG, 72 hours incubation, range of molar concentrations, read-out: IC50): 5 to 10 µM | LC3-II protein (marker of autophagy) (LC3-II): induced the up-regulation of LC3-II protein | pro-autophagic effects (acidic vesicular organelles) (DU-145 [1]): had a proautophagic effect | pro-autophagic effects (acidic vesicular organelles) (DU-145 [1]; listed as example 2): pro-autophagic effects | cells undergoing apoptotic processes (Annexin V and propidium iodide positive) (DU-145 [2]; 10 μM): ≤ 10% | induction of real (early) apoptosis (DU-145 [2]; flow cytometry): does not induce real (early) apoptosis | late apoptotic and necrotic events (DU-145 [2]; flow cytometry): induces late apoptotic and necrotic events | Rb protein expression (Rb, pRb): completely abolished Rb protein expression | survival of A549 NSCLC xenograft-bearing mice ([3]; UNBS5162 10 mg/kg i.v. in combination with Taxol 20 mg/kg i.v.): significantly increased the survival | T/C (%) ([3]; UNBS5162 i.v. 10 mg/kg (3i × 6w)): 102% | IC50 (PC3): 17.3 µM | Mean tumor size (MXT-HI mammary tumor; Day 14): 178.52 mm^2 | Mean tumor size (MXT-HI mammary tumor; Day 16): 250.08 mm^2 | Mean tumor size (MXT-HI mammary tumor; Day 19): 414.11 mm^2 | Mean tumor size (MXT-HI mammary tumor; Day 21): 423.71 mm^2 | Mean tumor size (MXT-HI mammary tumor; Day 23): 481.56 mm^2 | Mean tumor size (MXT-HI mammary tumor; Day 26): 619.21 mm^2 | effect on tumor area (MXT-HI mammary tumor; [4]): no relevant effects | survival of MXT-HI-bearing mice (MXT-HI mammary tumor; [4]): No prolongation of survival | Number of mice dead or sacrificed (MXT-HI mammary tumor; day 19 post graft): 1 | Number of mice dead or sacrificed (MXT-HI mammary tumor; day 21 post graft): 2 | Number of mice dead or sacrificed (MXT-HI mammary tumor; day 23 post graft): 3 | Number of mice dead or sacrificed (MXT-HI mammary tumor; day 26 post graft): 4 | Number of mice dead or sacrificed (MXT-HI mammary tumor; day 28 post graft): 1
